According to US20120245137A1 (Zalicus Pharmaceuticals Ltd., priority 2009, published 2012):

Key:
[1] = target: human α1G T-type channels (Homo sapiens, UniProt O43497); assay: T-type calcium channel block, whole cell patch clamp, α1G; assay type: cell-based; settings: HEK cells stably expressing human α1G; mainly non-inactivated protocol; values above 10,000 nM represented as 10000
Procedure, shortened: (§1)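 Cells are stable HEK 293 lines carrying human α1G or α1H channels, patched in whole-cell mode. Resting block comes from the non-inactivated pre-pulse; voltage-dependent block from the inactivated protocol.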

[2] = target: human α1H T-type channels (Homo sapiens, UniProt O95180); assay: T-type calcium channel block, whole cell patch clamp, α1H; assay type: cell-based; settings: HEK cells stably expressing human α1H; mainly non-inactivated protocol; values above 10,000 nM represented as 10000
Procedure, shortened: as §1

[3] = system: T-type calcium channel; assay: T-type channel blocking activity as summarised in text (subunit not stated); assay type: cell-based, human; settings: Table 4
Method: T-type calcium channel blocking activity was assayed in human embryonic kidneycells, HEK 293 (Invitrogen), stably transfected with the T-type calcium channel subunits. Briefly, cells were cultured in Dulbecco's modified eagle medium (DMEM) supplemented with 10% fetal bovine serum, 200 U/ml penicillin, and 0.2 mg/mL streptomycin at 37° C. with 5% CO2. At 85% confluency, cells were split with 0.25% trypsin/1 mM EDTA and plated at 10% confluency on glass coverslips. At 12 hours, the medium was replaced, and the cells stably transfected using a standard calcium phosphate protocol and the appropriate calcium channel cDNA's. Fresh DMEM was supplied, and the cells transferred to 28° C./5% CO2. Cells were incubated for 1 to 2 days prior to whole cell recording.
Standard patch-clamp techniques were employed to identify blockers of T-type currents. Briefly, previously described HEK cell lines stably expressing human α1G, α1H, and α1I T-type channels were used for all the recordings (passage #: 4-20, 37° C., 5% CO2). Whole cell patch clamp experiments were performed using an Axopatch 200B amplifier (Axon Instruments, Burlingame, Calif.) linked to a personal computer equipped with pCLAMP software. Data were analyzed using Clampfit (Axon Instruments) and SigmaPlot 4.0 (Jandel Scientific). […]

[4] = target: N-type calcium channel subunits (α1B, α2δ, and β3a) (Homo sapiens, UniProt Q00975); assay: Block of Cav2.2 channel, whole cell voltage clamp, manual and PatchXpress; assay type: cell-based; settings: Table 5; table follows Assay Example 3 (whole cell voltage clamp / PatchXpress); assay not given
Procedure, shortened: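 Percent block taken as current amplitude ratio with versus without compound, applied in rising doses; IC50 fitted where one cell received multiple doses. Protocol: 50 ms pulses to +20 mV at 0.067 Hz from […] or −90 mV holding; P/n leak subtraction, no junction-potential correction; manual and PatchXpress recordings.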

[5] = system: male CF1 mice; assay: 6 Hz psychomotor seizure model of partial epilepsy; assay type: in vivo; design: concentration or dose not given beside the values; settings: 6 Hz 32 mA corneal stimulus
Source text: Compounds can also be evaluated for the protection against seizures induced by a 6 Hz, 0.2 ms rectangular pulse width of 3 s duration, at a stimulus intensity of 32 mA (CC97) applied to the cornea of male CF1 mice (20-30 g) according to procedures described by Barton et al, “Pharmacological Characterization of the 6 Hz Psychomotor Seizure Model of Partial Epilepsy,” Epilepsy Res. 47(3):217-27 (2001). Seizures are characterised by the expression of one or more of the following behaviours: stun, forelimb clonus, twitching of the vibrissae and Straub-tail immediately following electrical stimulation.

[6] = system: mice; settings: mouse, in vivo
Method: In mice, the rotarod procedure (Dunham and Miya, J. Am. Pharmacol. Assoc. 46:208-209 (1957)) is used to disclose minimal muscular or neurological impairment (MMI). When a mouse is placed on a rod that rotates at a speed of 6 rpm, the animal can maintain its equilibrium for long periods of time. The animal is considered toxic if it falls off this rotating rod three times during a 1-min period.

Sequence of human α1G T-type channels (O43497 whole entry): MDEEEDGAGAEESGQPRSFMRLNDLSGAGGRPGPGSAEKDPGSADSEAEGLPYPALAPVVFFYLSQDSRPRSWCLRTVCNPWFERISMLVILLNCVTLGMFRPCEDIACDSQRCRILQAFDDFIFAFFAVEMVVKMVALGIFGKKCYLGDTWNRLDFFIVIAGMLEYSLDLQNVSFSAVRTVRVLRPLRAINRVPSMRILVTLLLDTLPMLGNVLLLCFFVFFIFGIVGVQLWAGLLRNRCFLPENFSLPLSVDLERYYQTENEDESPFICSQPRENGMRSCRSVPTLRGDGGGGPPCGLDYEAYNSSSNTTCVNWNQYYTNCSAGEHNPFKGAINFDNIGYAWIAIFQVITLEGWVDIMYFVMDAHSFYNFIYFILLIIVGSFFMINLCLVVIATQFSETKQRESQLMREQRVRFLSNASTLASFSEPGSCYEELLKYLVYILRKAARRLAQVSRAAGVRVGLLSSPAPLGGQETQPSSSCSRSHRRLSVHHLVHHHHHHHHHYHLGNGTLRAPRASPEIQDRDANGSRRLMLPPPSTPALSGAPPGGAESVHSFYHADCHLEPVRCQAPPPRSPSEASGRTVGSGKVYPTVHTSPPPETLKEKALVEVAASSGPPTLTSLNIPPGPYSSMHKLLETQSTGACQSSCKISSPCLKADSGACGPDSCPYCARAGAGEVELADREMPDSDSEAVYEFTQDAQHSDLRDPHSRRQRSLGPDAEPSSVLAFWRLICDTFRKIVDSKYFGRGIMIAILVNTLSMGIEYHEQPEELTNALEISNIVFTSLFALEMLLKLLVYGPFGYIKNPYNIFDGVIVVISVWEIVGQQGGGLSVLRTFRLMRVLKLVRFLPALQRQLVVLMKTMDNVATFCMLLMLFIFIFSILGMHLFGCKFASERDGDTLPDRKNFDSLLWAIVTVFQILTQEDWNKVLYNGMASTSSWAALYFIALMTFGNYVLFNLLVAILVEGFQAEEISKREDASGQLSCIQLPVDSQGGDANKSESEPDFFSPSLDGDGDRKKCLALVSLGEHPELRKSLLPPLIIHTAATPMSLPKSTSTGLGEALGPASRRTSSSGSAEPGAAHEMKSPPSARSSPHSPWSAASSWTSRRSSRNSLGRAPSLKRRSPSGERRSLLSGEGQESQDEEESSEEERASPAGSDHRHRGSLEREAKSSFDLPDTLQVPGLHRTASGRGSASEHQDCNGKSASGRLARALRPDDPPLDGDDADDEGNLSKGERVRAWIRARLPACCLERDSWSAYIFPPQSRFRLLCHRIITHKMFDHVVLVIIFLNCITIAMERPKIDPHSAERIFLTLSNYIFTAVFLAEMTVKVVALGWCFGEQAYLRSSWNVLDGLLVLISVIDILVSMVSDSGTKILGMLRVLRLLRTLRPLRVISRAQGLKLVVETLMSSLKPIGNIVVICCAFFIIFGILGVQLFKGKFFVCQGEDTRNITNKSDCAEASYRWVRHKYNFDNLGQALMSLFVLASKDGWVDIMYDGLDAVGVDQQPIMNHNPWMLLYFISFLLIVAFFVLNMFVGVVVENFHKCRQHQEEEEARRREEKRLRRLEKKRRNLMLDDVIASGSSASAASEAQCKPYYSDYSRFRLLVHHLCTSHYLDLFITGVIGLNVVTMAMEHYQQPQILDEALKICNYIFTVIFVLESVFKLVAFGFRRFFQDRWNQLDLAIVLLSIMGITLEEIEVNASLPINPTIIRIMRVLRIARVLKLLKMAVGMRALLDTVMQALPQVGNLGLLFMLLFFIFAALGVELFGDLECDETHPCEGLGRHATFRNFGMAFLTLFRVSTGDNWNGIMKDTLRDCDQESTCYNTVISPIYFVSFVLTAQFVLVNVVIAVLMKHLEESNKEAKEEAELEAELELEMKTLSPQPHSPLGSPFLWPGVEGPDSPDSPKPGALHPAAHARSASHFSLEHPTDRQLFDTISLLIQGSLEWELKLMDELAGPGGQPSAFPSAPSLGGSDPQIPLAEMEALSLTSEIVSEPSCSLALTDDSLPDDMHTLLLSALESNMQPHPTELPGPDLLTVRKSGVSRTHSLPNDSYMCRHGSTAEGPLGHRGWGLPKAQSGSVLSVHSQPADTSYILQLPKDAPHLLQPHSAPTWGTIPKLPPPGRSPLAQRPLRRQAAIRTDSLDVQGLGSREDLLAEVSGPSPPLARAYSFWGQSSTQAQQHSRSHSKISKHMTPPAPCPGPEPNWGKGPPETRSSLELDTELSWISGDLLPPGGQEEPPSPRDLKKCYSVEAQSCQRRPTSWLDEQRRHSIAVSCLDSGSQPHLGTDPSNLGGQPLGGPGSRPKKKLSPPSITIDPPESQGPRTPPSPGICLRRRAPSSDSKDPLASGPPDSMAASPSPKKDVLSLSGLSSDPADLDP
Sequence of human α1H T-type channels (O95180 whole entry): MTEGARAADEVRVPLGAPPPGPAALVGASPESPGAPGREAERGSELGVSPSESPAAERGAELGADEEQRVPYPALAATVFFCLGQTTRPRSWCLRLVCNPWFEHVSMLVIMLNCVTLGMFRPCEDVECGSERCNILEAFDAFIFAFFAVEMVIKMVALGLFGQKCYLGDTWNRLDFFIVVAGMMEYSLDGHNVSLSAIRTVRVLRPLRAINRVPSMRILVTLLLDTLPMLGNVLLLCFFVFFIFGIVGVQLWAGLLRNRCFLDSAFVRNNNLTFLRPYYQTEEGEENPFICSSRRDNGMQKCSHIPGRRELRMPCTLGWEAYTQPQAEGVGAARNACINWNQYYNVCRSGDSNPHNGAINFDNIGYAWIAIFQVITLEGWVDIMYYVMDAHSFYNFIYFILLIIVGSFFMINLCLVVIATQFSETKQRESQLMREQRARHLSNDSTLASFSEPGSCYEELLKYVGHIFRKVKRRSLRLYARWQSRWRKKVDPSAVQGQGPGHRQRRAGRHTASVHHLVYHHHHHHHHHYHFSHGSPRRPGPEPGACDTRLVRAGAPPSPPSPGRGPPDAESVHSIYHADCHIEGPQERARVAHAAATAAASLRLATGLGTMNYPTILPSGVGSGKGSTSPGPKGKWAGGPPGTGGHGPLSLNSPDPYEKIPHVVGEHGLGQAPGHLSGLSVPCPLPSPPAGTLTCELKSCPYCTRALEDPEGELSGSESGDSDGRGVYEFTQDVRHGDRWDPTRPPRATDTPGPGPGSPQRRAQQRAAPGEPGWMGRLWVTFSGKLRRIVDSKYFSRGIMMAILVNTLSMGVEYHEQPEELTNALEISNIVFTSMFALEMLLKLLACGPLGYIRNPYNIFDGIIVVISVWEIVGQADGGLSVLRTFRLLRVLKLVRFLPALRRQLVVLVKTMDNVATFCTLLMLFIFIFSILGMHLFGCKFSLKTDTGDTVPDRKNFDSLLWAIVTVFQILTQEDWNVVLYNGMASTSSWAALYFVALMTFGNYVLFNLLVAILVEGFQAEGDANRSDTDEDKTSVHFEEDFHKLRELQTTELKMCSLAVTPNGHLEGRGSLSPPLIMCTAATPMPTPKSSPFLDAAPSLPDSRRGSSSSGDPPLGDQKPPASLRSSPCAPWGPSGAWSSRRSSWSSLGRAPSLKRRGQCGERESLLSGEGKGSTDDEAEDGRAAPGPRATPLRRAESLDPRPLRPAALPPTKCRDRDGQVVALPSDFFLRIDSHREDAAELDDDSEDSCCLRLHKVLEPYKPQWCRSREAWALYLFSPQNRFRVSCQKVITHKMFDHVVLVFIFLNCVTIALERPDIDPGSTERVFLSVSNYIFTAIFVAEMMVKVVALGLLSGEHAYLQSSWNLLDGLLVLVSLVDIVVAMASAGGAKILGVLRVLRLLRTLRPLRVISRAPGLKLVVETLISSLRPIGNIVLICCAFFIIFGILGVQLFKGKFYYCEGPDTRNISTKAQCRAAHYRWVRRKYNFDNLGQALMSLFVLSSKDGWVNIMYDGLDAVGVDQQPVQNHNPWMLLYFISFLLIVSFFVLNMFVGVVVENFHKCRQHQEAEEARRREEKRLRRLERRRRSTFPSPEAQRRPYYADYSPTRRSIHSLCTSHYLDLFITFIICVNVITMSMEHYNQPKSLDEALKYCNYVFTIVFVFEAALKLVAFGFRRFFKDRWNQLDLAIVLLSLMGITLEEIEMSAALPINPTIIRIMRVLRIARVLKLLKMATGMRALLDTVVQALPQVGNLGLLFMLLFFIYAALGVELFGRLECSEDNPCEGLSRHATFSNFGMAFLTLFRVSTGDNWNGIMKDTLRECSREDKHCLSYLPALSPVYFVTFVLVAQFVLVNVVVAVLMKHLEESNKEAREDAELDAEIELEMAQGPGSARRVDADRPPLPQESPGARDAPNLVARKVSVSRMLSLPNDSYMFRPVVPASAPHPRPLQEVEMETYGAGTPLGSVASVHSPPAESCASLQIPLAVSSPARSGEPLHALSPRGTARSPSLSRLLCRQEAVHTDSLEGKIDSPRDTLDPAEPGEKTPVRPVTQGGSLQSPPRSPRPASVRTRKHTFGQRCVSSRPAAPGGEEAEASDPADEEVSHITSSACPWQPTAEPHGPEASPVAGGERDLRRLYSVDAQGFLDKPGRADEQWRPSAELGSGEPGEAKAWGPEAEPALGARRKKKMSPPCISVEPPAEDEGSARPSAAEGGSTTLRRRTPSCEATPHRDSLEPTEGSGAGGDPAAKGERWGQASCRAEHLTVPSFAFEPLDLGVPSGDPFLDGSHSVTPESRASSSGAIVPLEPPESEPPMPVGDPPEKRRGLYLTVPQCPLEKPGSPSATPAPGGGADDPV

COc1cc(F)cc(C(=O)N[C@H]2CC[C@H](S(=O)(=O)c3cccc(C(F)(F)F)c3)CC2)c1 [Compound 59, 3-fluoro-5-methoxy-N-((1R,4R)-4-(3-(trifluoromethyl)phenylsulfonyl)cyclohexyl)benzamide]
IC50 [1]: 9.13 µM | IC50 [2]: 8.09 µM | activity (IC50), T-type channel block [3]: lowest IC50 | IC50 [4]: 440 nM

O=C(NCC1(O)CCC(S(=O)(=O)c2cccc(C(F)(F)F)c2)CC1)c1ccc(F)c(Cl)c1 [Compound 230, 3-chloro-4-fluoro-N-(((1S,4S)-1-hydroxy-4-(3-(trifluoromethyl)phenylsulfonyl)cyclohexyl)methyl)benzamide]
IC50 [1]: 1.18 µM | IC50 [4]: 790 nM | Epilepsy 6 Hz (% protected) 0.25 hr [5]: 0% | Epilepsy 6 Hz (% protected) 0.5 hr [5]: 25% | Epilepsy 6 Hz (% protected) 1 hr [5]: 25% | Epilepsy 6 Hz (% protected) 2 hr [5]: 100% | Epilepsy 6 Hz (% protected) 4 hr [5]: 0% | EPILEPSY ROTAROD (% IMPAIRED) 0.25 hr [6]: 0% | EPILEPSY ROTAROD (% IMPAIRED) 0.5 hr [6]: 0% | EPILEPSY ROTAROD (% IMPAIRED) 1 hr [6]: 0% | EPILEPSY ROTAROD (% IMPAIRED) 2 hr [6]: 0% | EPILEPSY ROTAROD (% IMPAIRED) 4 hr [6]: 0%

CS(=O)(=O)c1cc(C(F)(F)F)ccc1C(=O)NCC1CC(S(=O)(=O)c2cccc(C(F)(F)F)c2)C1 [Compound 356, 2-(methylsulfonyl)-4-(trifluoromethyl)-N-(((1R,3R)-3-(3-(trifluoromethyl)phenylsulfonyl)cyclobutyl)methyl)benzamide]
IC50 [1]: 9.51 µM | IC50 [2]: 3.17 µM | IC50 [4]: 570 nM | Epilepsy 6 Hz (% protected) 0.25 hr [5]: 25% | Epilepsy 6 Hz (% protected) 0.5 hr [5]: 0% | Epilepsy 6 Hz (% protected) 1 hr [5]: 0% | Epilepsy 6 Hz (% protected) 2 hr [5]: 0% | Epilepsy 6 Hz (% protected) 4 hr [5]: 0% | EPILEPSY ROTAROD (% IMPAIRED) 0.25 hr [6]: 0% | EPILEPSY ROTAROD (% IMPAIRED) 0.5 hr [6]: 0% | EPILEPSY ROTAROD (% IMPAIRED) 1 hr [6]: 0% | EPILEPSY ROTAROD (% IMPAIRED) 2 hr [6]: 0% | EPILEPSY ROTAROD (% IMPAIRED) 4 hr [6]: 0%

O=S(=O)(c1cccc(C(F)(F)F)c1)C1CC(c2c[nH]c(C(F)(F)F)n2)C1 [Compound 442, 2-(trifluoromethyl)-4-((1R,3R)-3-(3-(trifluoromethyl)phenylsulfonyl)cyclobutyl)-1H-imidazole]
IC50 [4]: 2840 nM | Epilepsy 6 Hz (% protected) 0.25 hr [5]: 50% | Epilepsy 6 Hz (% protected) 0.5 hr [5]: 25% | Epilepsy 6 Hz (% protected) 1 hr [5]: 75% | Epilepsy 6 Hz (% protected) 2 hr [5]: 0% | Epilepsy 6 Hz (% protected) 4 hr [5]: 0% | EPILEPSY ROTAROD (% IMPAIRED) 0.25 hr [6]: 0% | EPILEPSY ROTAROD (% IMPAIRED) 0.5 hr [6]: 0% | EPILEPSY ROTAROD (% IMPAIRED) 1 hr [6]: 0% | EPILEPSY ROTAROD (% IMPAIRED) 2 hr [6]: 0% | EPILEPSY ROTAROD (% IMPAIRED) 4 hr [6]: 0%
